Where a chain is given by its changes, count along the chain named. Values joined by “and” are separate entries in the source; they are usually repeats but may differ in a detail not shown here. Equal values may be shown once.

The record followed here is article PMC12263422, “Cryo-EM structure of the human THIK-1 K2P K^+ channel reveals a lower Y gate regulated by lipids and anesthetics” (Nature Structural & Molecular Biology, 2025).

One experiment deals with T1, THIK-1 R92A (Homo sapiens, UniProt Q9HB14, R92A).
T1 construct: expressed in transfected cells; host or cells: Xenopus oocytes (mRNA injection)
T1 sequence (Q9HB14 1-408 R92A): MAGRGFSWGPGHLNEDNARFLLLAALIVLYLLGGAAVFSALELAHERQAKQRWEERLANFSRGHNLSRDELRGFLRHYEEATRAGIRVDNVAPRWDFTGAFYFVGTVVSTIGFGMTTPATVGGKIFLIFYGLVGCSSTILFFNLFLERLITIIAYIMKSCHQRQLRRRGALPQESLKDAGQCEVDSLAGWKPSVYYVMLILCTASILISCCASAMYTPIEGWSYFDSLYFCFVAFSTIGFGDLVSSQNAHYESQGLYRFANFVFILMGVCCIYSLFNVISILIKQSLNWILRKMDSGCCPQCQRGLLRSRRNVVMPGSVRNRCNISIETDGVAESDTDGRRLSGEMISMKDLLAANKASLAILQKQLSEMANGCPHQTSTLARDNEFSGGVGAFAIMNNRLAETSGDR
The experiment is described as follows: Inside-out excised patch recordings, oocytes, THIK-1 R92A mutant (lipid activation). It is filed as cell-based. Particulars: for EC50: Linoleic acid EC50, THIK-1 R92A; for Fold activation with 30.0 µM linoleic acid: THIK-1 R92A. From the text:
(§1) Human K2P13.1 THIK-1 (GenBank accession number: NM_022054) and human K2P12.1 THIK-2 (NM_022055.1) were used in this study. For functional expression studies, the respective K^+ channel subtype coding sequences were subcloned into the oocyte expression vector pSGEM or the dual-purpose expression vector pFAW[41] and verified by sequencing. All mutant channels were obtained by site-directed mutagenesis and verified by sequencing. To increase surface expression and macroscopic currents, measurements of THIK-2 channels used a mutated ER retention motif, (R11A R12A R14A R15A R16A; THIK-2*)[20]. Vector DNA was linearized with NheI or MluI, and mRNA was synthesized in vitro using the SP6 or T7 AmpliCap Max High Yield Message Maker Kit (Cellscript, USA) or HiScribe T7 ARCA mRNA Kit (New England Biolabs).
(§2) Two-electrode voltage–clamp (TEVC) studies were performed in Xenopus oocytes. All animal use conformed to the Guide for the Care and Use of Laboratory Animals (NIH Publication 85–23), and all experiments using Xenopus toads were approved by the local ethics panels. Oocytes were stored at 17 °C in ND96 recording solution composed of (in mM): 96 NaCl, 2 KCl, 1.8 CaCl2, 1 MgCl2, 5 HEPES (pH 7.5 adjusted with NaOH and HCl), supplemented with Na-pyruvate (275 mg L^–1), theophylline (90 mg L^–1) and gentamicin (50 mg L^–1). Oocytes were injected with 1 ng mRNA for WT or mutant channels, and were incubated for 24–48 h at 17 °C. Two-electrode voltage clamp recordings were then performed as previously described[42],[43]. For macroscopic patch–clamp measurements, oocytes were obtained as described above incubated at 17 °C in a solution containing (mM): 54 NaCl, 30 KCl, 2.4 NaHCO3, 0.82 MgSO4 ×7 H2O, 0.41 CaCl2, 0.33 Ca(NO3)2 ×4 H2O and 7.5 TRIS (pH 7.4 adjusted with NaOH and HCl) for 1–4 days before use. Excised patch recordings in inside-out configuration conditions were performed at room temperature. Patch pipettes were made from thick-walled borosilicate glass GB 200TF-8P (Science Products), had resistances of 0.2–0.5 MΩ (tip diameter, 10–25 µm) and filled with a pipette solution (in mM): 120 KCl, 10 HEPES and 3.6 CaCl2 (pH 7.4 adjusted with KOH and HCl). Intracellular bath solutions and compounds were applied to the cytoplasmic side of excised patches for the various K^+ channels through a gravity flow multi-barrel pipette system. The intracellular solution had the following composition (in mM): 120 KCl, 10 HEPES, 2 EGTA and 1 pyrophosphate (pH adjusted with KOH and HCl). Currents were recorded with an EPC10 amplifier (HEKA Electronics) and sampled at 10 kHz or higher, with filtering set to 3 kHz (–3 dB) or higher, as appropriate for sampling rate. For measurements of GPCR activation, whole-cell currents were recorded for THIK-1 in transiently transfected HEK-293 cells. Cells were stimulated by a ramp protocol between −100 and +60 mV (holding potential, −80 mV). The pipette solution was composed of (in mM): 140 KCl, 2 MgCl2, 1 CaCl2, 2.5 EGTA and 10 HEPES (pH 7.3 adjusted with KOH and HCl). The extracellular bath solution had the following composition (in mM): 135 NaCl, 5 KCl, 2 MgCl2, 2 CaCl2, 10 glucose and 10 HEPES pH (pH 7.3 adjusted with NaOH and HCl). Oxotremorine M (Oxo-M) was added to extracellular bath solution to obtain the final concentration. Single-channel currents were recorded with an Axopatch 200B amplifier through a Digidata 1440A digitizer (Molecular Devices). Data were filtered at 2 kHz and recorded at a 200-kHz sampling rate with the program Clampex (Molecular Devices). Pipette solution and bath solution for cell-attached recordings contained (in mM): 140 KCl, 2 MgCl2, 1 CaCl2 and 10 HEPES (pH 7.4 adjusted with KOH and HCl). For inside-out recordings, the bath solution contained (in mM): 140 KCl, 2 MgCl2, 1 CaCl2 and 10 HEPES (pH 7.2 adjusted with KOH and HCl). All experiments were conducted at room temperature. […]

Another experiment concerns the target T2, THIK-1 F262A (Homo sapiens, UniProt Q9HB14, F262A).
T2 construct: expressed in transfected cells; host or cells: Xenopus oocytes (mRNA injection)
T2 sequence (Q9HB14 1-408 F262A): T1 sequence (Q9HB14 1-408 R92A) with A92R, F262A
The experiment is described as follows: Inside-out excised patch recordings, oocytes, THIK-1 F262A mutant (lipid activation). It is filed as cell-based. Particulars: for EC50: Linoleic acid EC50, THIK-1 F262A; for Normalized currents / Fold activation with 30.0 µM linoleic acid: THIK-1 F262A.
Excerpt: as §1, §2

As to `CCCCC/C=C\C/C=C\CCCCCCCC(=O)O` [linoleic acid], the EC50 at THIK-1 R92A (individual recordings) is 52.3 µM and 38.8 µM and 36.8 µM and 60.6 µM and 44.2 µM and 91.1 µM and 115 µM; at THIK-1 R92A (mean) it was 62.6 µM; on THIK-1 F262A (individual recordings), 48.7 µM and 50.7 µM and 292 µM and 208 µM and 91.3 µM and 64.3 µM and 43.4 µM and 58.4 µM; at THIK-1 F262A (mean), 107 µM. For the same molecule, the “Fold activation with 30.0 µM linoleic acid” value was 1.900 and 2.280 and 2.410 and 2.160 and 1.740 and 1.840 and 1.500 and 1.630 and 1.510 on THIK-1 R92A (individual recordings); 1.89 on THIK-1 R92A (mean); 1.770 and 1.480 and 1.860 and 1.430 and 1.420 and 1.440 on THIK-1 F262A (individual recordings); 1.57 on THIK-1 F262A (mean). The Normalized currents at THIK-1 F262A (1 µM linoleic acid) came out at 0.94; on THIK-1 F262A (10 µM linoleic acid) it was 1.46; at THIK-1 F262A (30 µM linoleic acid), 1.58; on THIK-1 F262A (50 µM linoleic acid), 2.39; on THIK-1 F262A (100 µM linoleic acid), 3.02; at THIK-1 F262A (150 µM linoleic acid) it was 3.33. The Normalized currents at THIK-1 F262A (200 µM linoleic acid) was found to be 3.40.

As usually defined, the EC50 is the concentration at which the effect is half-maximal. Low values mean an effect from little substance, high ones a need for much substance.
